pIC50: −log10 of the molar value.

The assay concerns the target a-glucosidase (Saccharomyces cerevisiae, UniProt P53341). The assay is classed as biochemical. As to conditions: 0.5 U/ml enzyme, 0.6 mM pNaGP, pH 6.8, 37° C.; for Inhibition rate %: compound at 250 μmol/L; for pIC50: gradient 500 to 7.8125 μmol/L. The method, then: An in vitro a-glucosidase activity assay was used for activity determination:
the compounds were weighed separately, and dissolved in dimethylsulfoxide (DMSO) to prepare 250 μmol/L of a reagent for a subsequent experiment. In short, a-glucosidase solution with a final concentration of 0.5 U/ml was reacted with 250 μmol/L of the compound and 0.6 mM of pNaGP solution in 0.1 mM, pH 6.8 phosphate buffer solution, to determine the inhibitory effect of the compound on an a-glucosidase conversion substrate. […] 250 μmol/L (10 μL) of the compound, enzyme solution (40 μL), and potassium phosphate buffer solution (100 μL) were pre-incubated in a 96-well plate at 37° C. for 10 min. Then, 50 μL of the substrate (pNaGP, 0.6 mM) was added to each micropore, it was incubated at 37° C. for 20 min, the absorbance was measured at 405 nm, and changes in enzyme activity were detected.
The formula for calculating the enzyme inhibitory activity of the compound tested was as follows:
The in vitro a-glucosidase activity assay was used for activity determination:
after the compounds were weighed separately, it was dissolved in DMSO to prepare 1 mmol/L of mother solution, and it was diluted in gradient to 500 μmol/L, 250 μmol/L, 125 μmol/L, 62.5 μmol/L, 31.25 μmol/L, 15.625 μmol/L and 7.8125 μmol/L. The different concentrations of the compounds (10 μL), 0.5 U/ml of enzyme solution (40 μL), and 0.1 mM, pH 6.8 phosphate buffer solution (100 μL) were pre-incubated in the 96-well plate at 37° C. for 10 min. Then, 50 μL of the substrate (pNaGP, 0.6 mM) was added to each micropore, it was incubated at 37° C. for 20 min, the absorbance was measured at 405 nm, and changes in enzyme activity were detected.

a-glucosidase, sequence (P53341 whole entry): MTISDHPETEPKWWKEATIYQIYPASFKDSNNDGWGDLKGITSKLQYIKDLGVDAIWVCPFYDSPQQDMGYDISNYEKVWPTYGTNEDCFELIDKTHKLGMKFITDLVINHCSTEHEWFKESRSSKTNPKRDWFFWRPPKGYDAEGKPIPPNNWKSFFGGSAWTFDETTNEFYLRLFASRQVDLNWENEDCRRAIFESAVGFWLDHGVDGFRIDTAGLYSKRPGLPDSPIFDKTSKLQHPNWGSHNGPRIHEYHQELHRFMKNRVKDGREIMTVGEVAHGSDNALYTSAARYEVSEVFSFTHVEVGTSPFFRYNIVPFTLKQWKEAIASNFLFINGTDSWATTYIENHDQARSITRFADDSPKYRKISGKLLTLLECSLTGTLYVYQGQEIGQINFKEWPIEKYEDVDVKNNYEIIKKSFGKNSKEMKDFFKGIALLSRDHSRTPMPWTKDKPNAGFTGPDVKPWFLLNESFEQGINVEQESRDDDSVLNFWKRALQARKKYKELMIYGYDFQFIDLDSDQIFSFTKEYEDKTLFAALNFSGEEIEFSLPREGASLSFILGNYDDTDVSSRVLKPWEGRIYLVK

Consider `Cc1ncc(CO)c2cc(C(=O)Nc3ccc(F)cc3)c(=Nc3cccc(C(F)(F)F)c3)oc12` [GFY-1], for which the Inhibition rate % is reported as 23.042%.
`Cc1ncc(CO)c2cc(C(=O)Nc3ccc(F)cc3)c(=Nc3ccc(C(F)(F)F)cc3)oc12` [GFY-2]: the Inhibition rate % worked out at 13.832%.
Same read-out and setting: then `COc1cccc(N=c2oc3c(C)ncc(CO)c3cc2C(=O)Nc2ccc(F)cc2)c1` [GFY-4], with 30.769%.
Still for that read-out and setting: next, `Cc1ncc(CO)c2cc(C(=O)Nc3ccc(F)cc3)c(=Nc3cc(O)cc(CO)c3)oc12` [GFY-7]: 45.254%; `Cc1ncc(CO)c2cc(C(=O)Nc3ccc(F)c(F)c3)c(=Nc3cc(O)cc(CO)c3)oc12` [GFY-13]: 13.978%.
In turn, `Cc1ncc(CO)c2cc(C(=O)Nc3ccc(F)c(Cl)c3)c(=Nc3cccc(CO)c3)oc12` [GFY-16] showed an Inhibition rate % of 89.604% and a negative logarithm of the IC50 (pIC50) of 3.85.
For the molecule `Cc1ncc(CO)c2cc(C(=O)Nc3ccc(F)c(Cl)c3)c(=Nc3cc(O)cc(CO)c3)oc12` [GFY-17], the Inhibition rate % was 31.045%.
In turn, `Cc1ncc(CO)c2cc(C(=O)Nc3ccc(F)cc3)c(=Nc3ccc(F)cc3)oc12` [GFY-20] showed an Inhibition rate % of 95.56% and a negative logarithm of the IC50 (pIC50) of 4.70.
The like results for `Cc1ncc(CO)c2cc(C(=O)Nc3ccc(F)cc3)c(=Nc3cc(F)cc(F)c3)oc12` [GFY-21] were, in that order, 99.916% and 4.37.
The like results for `Cc1ncc(CO)c2cc(C(=O)Nc3ccc(F)cc3)c(=Nc3ccc(F)c(F)c3)oc12` [GFY-22] were, in that order, 86.819% and 4.43.
On to `Cc1ncc(CO)c2cc(C(=O)Nc3ccc(F)c(Cl)c3)c(=Nc3ccc(F)cc3)oc12` [GFY-23], for which the Inhibition rate % is listed as 22.127%.
`Cc1ncc(CO)c2cc(C(=O)Nc3ccc(F)c(Cl)c3)c(=Nc3cc(F)cc(F)c3)oc12` [GFY-24]: the Inhibition rate % stood at 99.833% and the pIC50 is 4.78.
In turn, `Cc1ncc(CO)c2cc(C(=O)Nc3ccc(F)c(Cl)c3)c(=Nc3ccc(F)c(F)c3)oc12` [GFY-25] had an Inhibition rate % of 69.628%.
On the same count and under the same terms, next, `Cc1ncc(CO)c2cc(C(=O)Nc3ccc(F)c(Cl)c3)c(=Nc3ccc(Cl)cc3)oc12` [GFY-26]: 62.651%; `Cc1ncc(CO)c2cc(C(=O)Nc3ccc(F)c(Cl)c3)c(=Nc3cc(Br)cc(Br)c3)oc12` [GFY-27]: 56.656%; `Cc1ncc(CO)c2cc(C(=O)Nc3ccc(F)c(Cl)c3)c(=Nc3ccc(Br)c(Br)c3)oc12` [GFY-28]: 64.035%.
In the case of `Cc1ncc(CO)c2cc(C(=O)Nc3ccc(F)cc3)c(=Nc3cc(Br)cc(Br)c3)oc12` [GFY-29], the Inhibition rate % was found to be 94.686% and the pIC50 was 4.57.

The pIC50 is the IC50 on a negative log10 scale, so that one unit is a factor of ten. The low end stands for a high IC50, the high end for a low IC50.

The values are drawn from US12448390B1, “Compound with α-glucosidase inhibitory activity and application thereof” (priority 2024, dated 2025).
